Article PMC8645336, “Benchmarking a highly selective USP30 inhibitor for enhancement of mitophagy and pexophagy” (Life Science Alliance, 2021)

Tests used:
BAP1 = target: T1, BAP1 (Homo sapiens, UniProt Q92560); assay: biochemical; design: Ubiquigent DUB profiler selectivity panel, remaining enzyme activity as % of control; conditions: read-out: % of control remaining
T1 sequence (Q92560 1-729): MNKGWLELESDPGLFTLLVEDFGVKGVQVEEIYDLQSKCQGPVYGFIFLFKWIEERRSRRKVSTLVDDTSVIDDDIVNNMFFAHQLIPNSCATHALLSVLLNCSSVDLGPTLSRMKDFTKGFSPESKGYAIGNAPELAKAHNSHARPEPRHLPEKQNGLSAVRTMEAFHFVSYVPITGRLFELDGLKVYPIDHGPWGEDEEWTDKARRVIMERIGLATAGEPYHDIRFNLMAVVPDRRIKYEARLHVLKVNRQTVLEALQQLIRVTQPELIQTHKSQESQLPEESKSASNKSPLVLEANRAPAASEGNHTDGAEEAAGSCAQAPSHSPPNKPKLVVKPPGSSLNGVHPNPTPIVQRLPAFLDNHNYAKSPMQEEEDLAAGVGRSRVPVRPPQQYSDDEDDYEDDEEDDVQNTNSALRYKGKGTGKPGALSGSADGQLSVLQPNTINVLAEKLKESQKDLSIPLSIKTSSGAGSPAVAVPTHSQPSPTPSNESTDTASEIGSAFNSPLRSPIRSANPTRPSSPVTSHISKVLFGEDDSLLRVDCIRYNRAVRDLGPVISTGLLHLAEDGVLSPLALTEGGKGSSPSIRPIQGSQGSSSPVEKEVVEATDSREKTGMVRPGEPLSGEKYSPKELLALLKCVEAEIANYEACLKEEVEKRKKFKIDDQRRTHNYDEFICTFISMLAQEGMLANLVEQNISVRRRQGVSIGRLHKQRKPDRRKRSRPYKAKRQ
Procedure, shortened: (§1)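 In YFP-PRKN-overexpressing hTERT-RPE1 cells, 1 h antimycin A plus oligomycin A (1 μM each) with CMPD-39, then Western blot of TOMM20 ubiquitylation. Target engagement: 2 h compound, then 10 min HA-Ub-PA at 37°C, read as USP30 shift. DUB panel (>40 enzymes) screened at 1-100 μM.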

USP28 = target: T2, USP28 (Homo sapiens, UniProt Q96RU2); assay: biochemical; design: Ubiquigent DUB profiler selectivity panel, remaining enzyme activity as % of control; conditions: read-out: % of control remaining
T2 sequence (Q96RU2 1-1077): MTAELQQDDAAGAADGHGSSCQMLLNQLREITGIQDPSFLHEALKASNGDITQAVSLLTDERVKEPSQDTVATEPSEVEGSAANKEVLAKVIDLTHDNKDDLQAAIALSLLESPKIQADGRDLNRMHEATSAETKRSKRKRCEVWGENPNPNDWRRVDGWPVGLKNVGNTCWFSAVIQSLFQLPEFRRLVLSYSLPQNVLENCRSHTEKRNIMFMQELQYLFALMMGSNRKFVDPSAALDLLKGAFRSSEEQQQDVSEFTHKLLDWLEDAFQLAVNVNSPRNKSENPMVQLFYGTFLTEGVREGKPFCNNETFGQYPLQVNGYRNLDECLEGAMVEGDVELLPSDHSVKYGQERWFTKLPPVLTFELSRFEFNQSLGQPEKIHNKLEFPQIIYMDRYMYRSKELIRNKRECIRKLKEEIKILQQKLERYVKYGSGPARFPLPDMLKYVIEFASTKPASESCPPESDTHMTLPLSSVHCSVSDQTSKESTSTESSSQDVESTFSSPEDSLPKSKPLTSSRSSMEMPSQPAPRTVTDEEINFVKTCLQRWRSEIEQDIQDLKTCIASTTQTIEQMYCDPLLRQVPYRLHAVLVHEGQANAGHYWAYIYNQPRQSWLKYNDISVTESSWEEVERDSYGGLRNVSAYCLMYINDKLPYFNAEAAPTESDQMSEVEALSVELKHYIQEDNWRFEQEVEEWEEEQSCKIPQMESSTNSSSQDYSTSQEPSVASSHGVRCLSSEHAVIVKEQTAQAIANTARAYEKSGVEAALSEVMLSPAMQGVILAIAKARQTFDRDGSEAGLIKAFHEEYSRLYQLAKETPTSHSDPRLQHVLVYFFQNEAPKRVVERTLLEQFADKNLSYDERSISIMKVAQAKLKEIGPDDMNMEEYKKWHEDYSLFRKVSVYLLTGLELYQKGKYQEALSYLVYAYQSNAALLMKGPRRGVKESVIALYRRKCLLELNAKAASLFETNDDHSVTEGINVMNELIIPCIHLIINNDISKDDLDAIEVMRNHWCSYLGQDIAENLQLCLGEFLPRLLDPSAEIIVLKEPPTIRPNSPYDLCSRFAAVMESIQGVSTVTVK
Procedure, shortened: as §1

remaining activity at 1 µM (BAP1): 104%
remaining activity at 10 µM (BAP1): 89%
remaining activity at 100 µM (BAP1): 96.5%
remaining activity at 1 µM (USP28): 96.5%
remaining activity at 10 µM (USP28): 94.2%
remaining activity at 100 µM (USP28): 102%
SMILES: CC(C)(C)NS(=O)(=O)c1ccc(NC(=O)[C@H](Cc2ccccc2)NC(=O)c2ccc(F)cc2)cc1 [compound 39, CMPD-39]
